Source: ChEMBL document CHEMBL2321771, “Inhibition of Ebola Virus Infection: Identification of Niemann-Pick C1 as the Target by Optimization of a Chemical Probe” (ACS Med Chem Lett, 2013)

These molecules were tested on Ebolavirus (assay: Antiviral activity against Ebola virus by cell based luciferase reporter gene assay). Settings: Orthoebolavirus.
Type: functional, Ebola virus sp.
In the case of Cc1cccc(COc2ccccc2CN2CCN(C(=O)CNC(=O)CC34CC5CC(CC(C5)C3)C4)CC2)c1, the IC50 is reported as 0.35 µM.
O=C(CC12CC3CC(CC(C3)C1)C2)NCC(=O)N1CCN(Cc2ccc(Br)cc2)CC1 was tested, and the IC50 was 3.2 µM.
With COc1cccc(CN2CCN(C(=O)CNC(=O)CC34CC5CC(CC(C5)C3)C4)CC2)c1 the IC50 was 2 µM.
Work on COC(=O)c1ccccc1CN1CCN(C(=O)CNC(=O)CC23CC4CC(CC(C4)C2)C3)CC1 yielded an IC50 of 8 µM.
CC(C)C(NC(=O)CC12CC3CC(CC(C3)C1)C2)C(=O)N1CCN(Cc2ccccc2)CC1 (stereo unspecified) was tested, and the IC50 was > 40 µM.
O=C(CC12CC3CC(CC(C3)C1)C2)NCC(=O)N1CCN(Cc2ccc3ccccc3c2)CC1 was tested, and the IC50 was 3 µM.
Cc1cc(O)cc(C)c1CN1CCN(C(=O)CNC(=O)CC23CC4CC(CC(C4)C2)C3)CC1 showed an IC50 of 8 µM.
For O=C(CC12CC3CC(CC(C3)C1)C2)NCC(=O)N1CCN(Cc2ccccc2Cl)CC1, the IC50 was 3.2 µM.
O=C(CC12CC3CC(CC(C3)C1)C2)NCC(=O)N1CCN(C(c2ccccc2)c2ccccc2)CC1 was tested, and the IC50 was > 10 µM.
Molecule O=C(CC12CC3CC(CC(C3)C1)C2)NCC(=O)N1CCN(Cc2ccccc2OCc2cccnc2)CC1 has an IC50 of 2.1 µM.
For O=C(CC12CC3CC(CC(C3)C1)C2)NC(CCC(=O)OCc1ccccc1)C(=O)N1CCN(Cc2ccccc2)CC1 (stereo unspecified), the IC50 was 8.7 µM.
In the case of O=C(CC12CC3CC(CC(C3)C1)C2)NCC(=O)N1CCN(Cc2ccccc2OCc2ccccc2)CC1, the IC50 is reported as 2 µM.
COc1ccccc1CN1CCN(C(=O)CNC(=O)CC23CC4CC(CC(C4)C2)C3)CC1 gave an IC50 of 2.1 µM.
Work on O=C(CC12CC3CC(CC(C3)C1)C2)NCC(=O)N1CCN(Cc2ccc(Cl)c(Cl)c2)CC1 yielded an IC50 of 0.75 µM.
For O=C(CC12CC3CC(CC(C3)C1)C2)NCC(=O)N1CCN(Cc2ccccc2OCc2ccccc2[N+](=O)[O-])CC1, the IC50 was 1.6 µM.
For CC(C)(C)CC(=O)NCC(=O)N1CCN(Cc2ccccc2)CC1, the IC50 was > 40 µM.
In the case of COC(=O)c1ccc(CN2CCN(C(=O)CNC(=O)CC34CC5CC(CC(C5)C3)C4)CC2)cc1, the IC50 is reported as 15 µM.
For O=C(CC12CC3CC(CC(C3)C1)C2)NCC(=O)N1CCN(Cc2cccc(Br)c2)CC1, the IC50 was 1 µM.
In the case of O=C(CC12CC3CC(CC(C3)C1)C2)NCC(=O)N1CCN(Cc2cccc(C(=O)O)c2)CC1, the IC50 is reported as > 40 µM.
N#Cc1cccc(CN2CCN(C(=O)CNC(=O)CC34CC5CC(CC(C5)C3)C4)CC2)c1 was tested, and the IC50 was 1.2 µM.
O=C(Cc1ccccc1)NCC(=O)N1CCN(Cc2ccccc2)CC1 was tested, and the IC50 was > 40 µM.
With COC(=O)c1cccc(CN2CCN(C(=O)CNC(=O)CC34CC5CC(CC(C5)C3)C4)CC2)c1 the IC50 was 14 µM.
In the case of CC(O)C(NC(=O)CC12CC3CC(CC(C3)C1)C2)C(=O)N1CCN(Cc2ccccc2)CC1 (stereo unspecified), the IC50 is reported as > 40 µM.
Molecule CNC(=O)c1ccc(COc2ccccc2CN2CCN(C(=O)CNC(=O)CC34CC5CC(CC(C5)C3)C4)CC2)cc1 has an IC50 of 2.1 µM.
For O=C(CC12CC3CC(CC(C3)C1)C2)NCC(=O)N1CCN(Cc2ccccc2C(=O)O)CC1, the IC50 was > 40 µM.
Work on CC(=O)Nc1ccc(CN2CCN(C(=O)CNC(=O)CC34CC5CC(CC(C5)C3)C4)CC2)cc1 yielded an IC50 of 7.5 µM.
Molecule O=C(CC12CC3CC(CC(C3)C1)C2)NCC(=O)N1CCN(Cc2ccc(Cl)cc2Cl)CC1 has an IC50 of 6.6 µM.
Molecule O=C(CC12CC3CC(CC(C3)C1)C2)NCC(=O)N1CCN(Cc2ccccc2OCc2cccc(Br)c2)CC1 has an IC50 of 2.4 µM.
CC(NC(=O)CC12CC3CC(CC(C3)C1)C2)C(=O)N1CCN(Cc2ccccc2)CC1 (stereo unspecified) was tested, and the IC50 was > 40 µM.
For O=C(CC12CC3CC(CC(C3)C1)C2)NCC(=O)N1CCN(Cc2cccc(C(F)(F)F)c2)CC1, the IC50 was 2.6 µM.
In the case of O=C(CC12CC3CC(CC(C3)C1)C2)NCCCC(=O)N1CCN(Cc2ccccc2)CC1, the IC50 is reported as 22 µM.
With O=C(NCC(=O)N1CCN(Cc2ccccc2)CC1)c1ccccc1 the IC50 was 31 µM.
For O=C(CC12CC3CC(CC(C3)C1)C2)NCC(=O)N1CCN(Cc2cc(Br)ccc2O)CC1, the IC50 was 0.5 µM.
Work on COc1cccc(COc2ccccc2CN2CCN(C(=O)CNC(=O)CC34CC5CC(CC(C5)C3)C4)CC2)c1 yielded an IC50 of 1.9 µM.
O=C(CC12CC3CC(CC(C3)C1)C2)NCC(=O)N1CCN(Cc2ccccc2OCc2ccc(C(=O)O)cc2)CC1 showed an IC50 of 4 µM.
Work on O=C(CC12CC3CC(CC(C3)C1)C2)NCC(=O)N1CCN(Cc2ccccc2OCc2ccncc2)CC1 yielded an IC50 of 0.8 µM.
